Assays:
[1] = target: T1, succinate dehydrogenase (SDH; succinate:quinone oxidoreductase, SQR, EC 1.3.5.1; complex II) (Pyricularia oryzae, UniProt A0ABQ8NN34+G4N2P5+G4NB04); assay: biochemical
T1 construct: gene SDH2

[2] = target: T2, cytochrome bc1 complex (complex III; decylubiquinol:Cyt c reductase, EC 1.10.2.2) (Pyricularia grisea, UniProt Q85KP9); assay: biochemical; details: read-out: % inhibition at 50 μM
T2 construct: gene cytb

SMILES | inhibition at 400 µM ([1]; read-out: % inhibition at 400 μM) | inhibition at 50 µM [2] | inhibition at 40 µM ([1]; read-out: % inhibition at 40 μM)
CO/C=C(/C(=O)OC)c1ccccc1COc1cccc(NC(=O)c2ccccc2NC(C)=O)c1 [11b] | ~23% | 58 ± 18% | 
CO/C=C(/C(=O)OC)c1ccccc1Oc1cc(Oc2ccccc2C#N)ncn1 [compound 2, azoxystrobin] |  | 61 ± 10% | 
Cn1cc(C(=O)Nc2ccccc2-c2cc(F)c(F)c(F)c2)c(C(F)F)n1 [compound 6, fluxapyroxad] |  |  | > 90%

Source: paper PMC8038316 (International Journal of Molecular Sciences, 2021)
